Common to all, as to type: biochemical
In experiment [1] the target is T1, human recombinant caspase 3 (Homo sapiens, UniProt P42574).
T1 construct: purchased CALBIOCHEM 235417
T1 sequence (P42574 29-175 limits assumed): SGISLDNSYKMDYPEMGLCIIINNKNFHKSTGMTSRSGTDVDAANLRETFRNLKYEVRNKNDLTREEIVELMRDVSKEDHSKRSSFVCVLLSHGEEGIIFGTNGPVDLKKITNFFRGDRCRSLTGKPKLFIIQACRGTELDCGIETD
T1 sequence (P42574 176-277 limits assumed): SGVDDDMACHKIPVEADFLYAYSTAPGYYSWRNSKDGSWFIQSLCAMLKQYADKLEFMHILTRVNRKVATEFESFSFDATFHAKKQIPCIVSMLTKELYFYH
As to the kind of experiment: Assay of inhibitory activity against human recombinant caspase 3 (fluorogenic substrate Ac-DEVD-MCA). To be noted: for specificity of the enzyme inhibitory activity (in words): caspase 3 versus cathepsins and trypsin. As for the experimental part:
A reaction buffer containing 10% sucrose, 0.1% CHAPS, 2 mM dithiothreitol in 25 mM HEPES (pH 7.5) is prepared. […] Thereto is added 25 μl of human recombinant caspase 3 (CALBIOCHEM catalog No. 235417), 500 U/ml, to start the reaction. After incubation at room temperature for 2 hr. the reaction quench buffer (0.1 M monochloroacetic acids 0.03 M sodium acetate, 0.15 M acetic acid (pH 4.3)) is added by 100 μl per well. The fluorescence of 7-amino-4-methylcoumarin ([…]) released by the enzyme reaction is measured using a fluorophotometer (Ex. 355 nm, Em. 460 nm).
The compounds of the above-mentioned 1. were examined for the activity inhibitory action on human recombinant caspase 3.

Experiment [2] addresses cathepsin L (Homo sapiens, UniProt P07711). As to the kind of experiment: Enzyme specificity assay, cathepsin L (substrate Z-Phe-Arg-MNA). Conditions: FIG. 2; phosphate buffer pH 5.5. The procedure: (§1) The above-mentioned compound was assayed for the inhibitory activity using […], cathepsin L and trypsin as enzymes other than caspase 3 and by an assay method similar to the above-mentioned Example 1 using phosphate buffer, pH 5.5 (100 mM NaCl, 5-mM DTT, 4 mM EDTA) as a buffer, Z-Arg-Arg-MNA as a substrate for […], Z-Phe-Arg-MNA as a substrate for cathepsin L, and Boc-Phe-Ser-Arg-MCA as a substrate for trypsin.

For experiment [3], the target named is T2, trypsin (Bos taurus, UniProt P00760).
T2 construct: gene PRSS1
T2 sequence (P00760 24-246): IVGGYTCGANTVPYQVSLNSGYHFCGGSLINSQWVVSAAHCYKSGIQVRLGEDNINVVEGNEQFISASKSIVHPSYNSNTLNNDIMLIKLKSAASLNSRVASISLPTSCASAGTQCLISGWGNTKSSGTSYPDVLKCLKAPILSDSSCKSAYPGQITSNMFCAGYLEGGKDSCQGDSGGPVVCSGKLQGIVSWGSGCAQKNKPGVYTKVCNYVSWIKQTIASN
As to the kind of experiment: Enzyme specificity assay, trypsin (substrate Boc-Phe-Ser-Arg-MCA). To be noted: FIG. 2; phosphate buffer pH 5.5. The procedure: as §1

For experiment [4], the target named is cathepsin B (Homo sapiens, UniProt P07858). Nature of the experiment: Enzyme specificity assay, cathepsin B (substrate Z-Arg-Arg-MNA). Conditions: FIG. 2; phosphate buffer pH 5.5. As for the experimental part:
as §1

Where [5] appears, read: FIG. 1 upper panel, read-out: IC50, inhibitory activity against human recombinant caspase 3.
Where [6] appears, read: FIG. 1 lower panel, read-out: IC50, inhibitory activity against human recombinant caspase 3.

Read-outs that look alike come from different tables or passages of the source. Some results are limits rather than exact numbers.

Consider 5 molecules from patent US20090149436A1, “CASPASE INHIBITOR” (Astellas Pharma Inc., priority 2004, published 2009).

Chain of cathepsin L (P07711 114-333, species assumed): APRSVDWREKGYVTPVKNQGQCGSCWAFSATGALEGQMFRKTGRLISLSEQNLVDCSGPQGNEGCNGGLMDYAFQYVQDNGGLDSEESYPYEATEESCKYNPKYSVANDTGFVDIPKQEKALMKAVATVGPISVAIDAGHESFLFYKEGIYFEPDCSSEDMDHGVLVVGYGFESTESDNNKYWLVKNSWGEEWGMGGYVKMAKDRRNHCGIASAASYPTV

Regarding `C=CC1=C(C)c2cc3[n-]c(cc4nc(cc5[n-]c(cc1n2)c(C)c5CCC(=O)[O-])C(CCC(=O)[O-])=C4C)c(C)c3C=C.[Co+2].[H+].[H+]` [cobalt protoporphyrin], the IC50 (usually the concentration that inhibits the measured activity by half) in experiment [1] (setting [5]) was 13.1 nM.

For the molecule `C/C1=C2/[N-]C([C@H](CC(N)=O)[C@@]2(C)CCC(=O)NCC(C)O)[C@]2(C)N=C(/C(C)=C3N=C(/C=C4N=C1[C@@H](CCC(N)=O)C\4(C)C)[C@@H](CCC(N)=O)[C@]\3(C)CC(N)=O)[C@@H](CCC(N)=O)[C@]2(C)CC(N)=O.[C-]#N.[C-]#N.[Co]` (some centres unmarked) [dicyanocobinamide], the “caspase 3 inhibitory activity (in words)” value in experiment [1] (FIG. 1, compared with DEVD, standard product) is reported as “far stronger than the inhibitory activity of DEVD”. The IC50 in experiment [1] (setting [6]) was 0.142 nM; in experiment [1] (setting [5]) it was 0.28 nM; in experiment [1] (FIG. 2, read-out: IC50, caspase (Enzyme Specificity)), 0.28 nM; in experiment [2] it was 6.12 nM; in experiment [3] it was > 5000 nM; in experiment [4] it was 102 nM. The “specificity of the enzyme inhibitory activity (in words)” value in experiment [1] (FIG. 2) is listed as “strongest inhibitory activity against caspase 3”. Besides, the “Inhibitory mode against human recombinant caspase 3 (Lineweaver-Burk plot)” value in experiment [1] (FIG. 3, different substrate concentrations (2, 4, 6 and 8 nM)) was “competitively inhibits the substrate for caspase 3”.

On to `CC(=O)N[C@@H](CC(=O)O)C(=O)N[C@@H](CCC(=O)O)C(=O)N[C@H](C(=O)N[C@H](C=O)CC(=O)O)C(C)C` [DEVD, acetyl-L-aspartyl-L-glutamyl-L-valyl-L-aspart-1-al, reference compound], for which the “specificity of the enzyme inhibitory activity (in words)” value in experiment [1] (FIG. 2) is “strongest inhibitory activity against caspase 3”. Moreover, the IC50 in experiment [2] is 17400 nM; in experiment [3], > 100000 nM; in experiment [4], 672 nM.

Regarding cyanocobalamin [reference compound], the results for the IC50 in experiment [1] (setting [6]) and in experiment [1] (setting [5]) were 1760 nM and 2100 nM, respectively.

For the molecule cyanoimidazolylcobamide, the concentration for half-maximal inhibition (IC50) in experiment [1] (setting [6]) is 91.2 nM.
